Results taken from ChEMBL document CHEMBL1201862, “PubChem BioAssay data set” (2004).
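Growth conditions: 96-well plates. Treatment: test compound, 48 hours, 5 concentrations. Analysis: linear interpolation between bracketing concentrations; unreached endpoints set to highest concentration. Abbreviation: GI50, concentration required for 50% inhibition of growth.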 Active and inactive are the calls of the source. Rule as the data show it: active = GI50 up to about 1.1 µM and inactive = higher.

What was measured:
Test in all cases: growth of human tumour cells (NCI), 48 h
786-0 = tested on: 786-0
A498 = tested on: A498
A549 = tested on: A549
ACHN = tested on: ACHN
BT-549 = tested on: BT-549
CAKI-1 = tested on: CAKI-1
CCRF-CEM = tested on: CCRF-CEM
COLO 205 = tested on: COLO 205
DU-145 = tested on: DU-145
EKVX = tested on: EKVX
HCC 2998 = tested on: HCC 2998
HCT-116 = tested on: HCT-116
HCT-15 = tested on: HCT-15
HL-60 = tested on: HL-60
HOP-62 = tested on: HOP-62
HOP-92 = tested on: HOP-92
HT-29 = tested on: HT-29
Hs-578T = tested on: Hs-578T
IGROV-1 = tested on: IGROV-1
K562 = tested on: K562
KM12 = tested on: KM12
LOX IMVI = tested on: LOX IMVI
M14 = tested on: M14
MCF7 = tested on: MCF7
MDA-MB-231 = tested on: MDA-MB-231
MDA-MB-435 = tested on: MDA-MB-435
MDA-N = tested on: MDA-N
MOLT-4 = tested on: MOLT-4
Malme-3M = tested on: Malme-3M
NCI-H226 = tested on: NCI-H226
NCI-H23 = tested on: NCI-H23
NCI-H460 = tested on: NCI-H460
NCI/ADR-RES = tested on: NCI/ADR-RES
OVCAR-3 = tested on: OVCAR-3
OVCAR-4 = tested on: OVCAR-4
OVCAR-5 = tested on: OVCAR-5
OVCAR-8 = tested on: OVCAR-8
PC-3 = tested on: PC-3
RPMI-8226 = tested on: RPMI-8226
RXF 393 = tested on: RXF 393
SF-268 = tested on: SF-268
SF-295 = tested on: SF-295
SF-539 = tested on: SF-539
SK-MEL-28 = tested on: SK-MEL-28
SK-MEL-2 = tested on: SK-MEL-2
SK-MEL-5 = tested on: SK-MEL-5
SK-OV-3 = tested on: SK-OV-3
SN12C = tested on: SN12C
SNB-19 = tested on: SNB-19
SNB-75 = tested on: SNB-75
SR = tested on: SR
SW-620 = tested on: SW-620
T47D = tested on: T47D
TK-10 = tested on: TK-10
U-251 = tested on: U-251
UACC-257 = tested on: UACC-257
UACC-62 = tested on: UACC-62
UO-31 = tested on: UO-31
NCI-H522 = tested on: NCI-H522

Compound: Cc1nnc2n1-c1ccccc1N(Cc1ccccc1)CC2
- GI50 (786-0): 87.7 µM (inactive)
- GI50 (A498): 93.8 µM (inactive)
- GI50 (A549): 75.7 µM (inactive)
- GI50 (ACHN): 49.5 µM (inactive)
- GI50 (BT-549): 22.1 µM (inactive)
- GI50 (CAKI-1): 38 µM (inactive)
- GI50 (CCRF-CEM): 17.6 µM (inactive)
- GI50 (COLO 205): 38.1 µM (inactive)
- GI50 (DU-145): 70.3 µM (inactive)
- GI50 (EKVX): 34.2 µM (inactive)
- GI50 (HCC 2998): 79.4 µM (inactive)
- GI50 (HCT-116): 46 µM (inactive)
- GI50 (HCT-15): 45.7 µM
- GI50 (HL-60): 23.6 µM (inactive)
- GI50 (HOP-62): > 100 µM (inactive)
- GI50 (HOP-92): 9.55 µM (inactive)
- GI50 (HT-29): 40.1 µM (inactive)
- GI50 (Hs-578T): 58.9 µM (inactive)
- GI50 (IGROV-1): 50.6 µM (inactive)
- GI50 (K562): 20.3 µM (inactive)
- GI50 (KM12): 81.1 µM (inactive)
- GI50 (LOX IMVI): 55.8 µM (inactive)
- GI50 (M14): 63.7 µM (inactive)
- GI50 (MCF7): 37.4 µM (inactive)
- GI50 (MDA-MB-231): > 100 µM (inactive)
- GI50 (MDA-MB-435): 51.4 µM (inactive)
- GI50 (MDA-N): 46.2 µM (inactive)
- GI50 (MOLT-4): 23.8 µM (inactive)
- GI50 (Malme-3M): 85.1 µM (inactive)
- GI50 (NCI-H226): 46.8 µM (inactive)
- GI50 (NCI-H23): 60 µM (inactive)
- GI50 (NCI-H460): > 100 µM (inactive)
- GI50 (NCI/ADR-RES): 13.8 µM (inactive)
- GI50 (OVCAR-3): 39.6 µM (inactive)
- GI50 (OVCAR-4): 71.9 µM (inactive)
- GI50 (OVCAR-5): > 100 µM (inactive)
- GI50 (OVCAR-8): 56 µM (inactive)
- GI50 (PC-3): 49.8 µM (inactive)
- GI50 (RPMI-8226): 11.4 µM (inactive)
- GI50 (RXF 393): 34.8 µM (inactive)
- GI50 (SF-268): 58.9 µM (inactive)
- GI50 (SF-295): 75 µM (inactive)
- GI50 (SF-539): > 100 µM (inactive)
- GI50 (SK-MEL-28): > 100 µM (inactive)
- GI50 (SK-MEL-2): 80.7 µM (inactive)
- GI50 (SK-MEL-5): 38.2 µM (inactive)
- GI50 (SK-OV-3): > 100 µM (inactive)
- GI50 (SN12C): 58.7 µM (inactive)
- GI50 (SNB-19): > 100 µM (inactive)
- GI50 (SNB-75): 52.6 µM (inactive)
- GI50 (SR): 30.4 µM (inactive)
- GI50 (SW-620): 17.2 µM (inactive)
- GI50 (T47D): 41.2 µM (inactive)
- GI50 (TK-10): 82.6 µM (inactive)
- GI50 (U-251): 50 µM (inactive)
- GI50 (UACC-257): 63.1 µM (inactive)
- GI50 (UACC-62): 39.6 µM (inactive)
- GI50 (UO-31): 34.5 µM (inactive)

Compound: C=CCN1C[C@H](C)N([C@@H](c2ccc(C(=O)N3CCCCC3)cc2)c2cccc(OC)c2)C[C@H]1C
- GI50 (786-0): 37.9 µM (inactive)
- GI50 (A498): 29.4 µM (inactive)
- GI50 (A549): 30.5 µM (inactive)
- GI50 (ACHN): 32.3 µM (inactive)
- GI50 (BT-549): 32.9 µM (inactive)
- GI50 (CAKI-1): 66.4 µM (inactive)
- GI50 (CCRF-CEM): 21.5 µM (inactive)
- GI50 (COLO 205): 16.6 µM (inactive)
- GI50 (DU-145): 80.5 µM (inactive)
- GI50 (EKVX): 44.4 µM (inactive)
- GI50 (HCC 2998): 31.6 µM (inactive)
- GI50 (HCT-116): 28.6 µM (inactive)
- GI50 (HCT-15): 29.6 µM
- GI50 (HL-60): 1.35 µM (inactive)
- GI50 (HOP-62): > 100 µM (inactive)
- GI50 (HOP-92): 98.6 µM (inactive)
- GI50 (HT-29): 24.7 µM (inactive)
- GI50 (Hs-578T): 86.7 µM (inactive)
- GI50 (IGROV-1): 63.2 µM (inactive)
- GI50 (K562): 20.6 µM (inactive)
- GI50 (KM12): 36.9 µM (inactive)
- GI50 (LOX IMVI): 14.4 µM (inactive)
- GI50 (M14): 17.4 µM (inactive)
- GI50 (MCF7): 30.1 µM (inactive)
- GI50 (MDA-MB-231): 30.1 µM (inactive)
- GI50 (MDA-MB-435): 35 µM (inactive)
- GI50 (MDA-N): 34.5 µM (inactive)
- GI50 (MOLT-4): 64.1 µM (inactive)
- GI50 (Malme-3M): 18.5 µM (inactive)
- GI50 (NCI-H226): 45.4 µM (inactive)
- GI50 (NCI-H23): 42.4 µM (inactive)
- GI50 (NCI-H460): 31 µM (inactive)
- GI50 (NCI-H522): 21.7 µM (inactive)
- GI50 (NCI/ADR-RES): 32.4 µM (inactive)
- GI50 (OVCAR-3): 49.2 µM (inactive)
- GI50 (OVCAR-4): 56.4 µM (inactive)
- GI50 (OVCAR-5): 58.1 µM (inactive)
- GI50 (OVCAR-8): 43.7 µM (inactive)
- GI50 (PC-3): 21.9 µM (inactive)
- GI50 (RXF 393): 48 µM (inactive)
- GI50 (SF-268): 52.7 µM (inactive)
- GI50 (SF-295): 45.2 µM (inactive)
- GI50 (SF-539): 27 µM (inactive)
- GI50 (SK-MEL-2): 22.2 µM (inactive)
- GI50 (SK-MEL-5): 19.1 µM (inactive)
- GI50 (SK-OV-3): 89.5 µM (inactive)
- GI50 (SN12C): 43 µM (inactive)
- GI50 (SNB-19): 50.5 µM (inactive)
- GI50 (SNB-75): 40 µM (inactive)
- GI50 (SR): 16.1 µM (inactive)
- GI50 (T47D): 24.5 µM (inactive)
- GI50 (TK-10): 40 µM (inactive)
- GI50 (U-251): 32.1 µM (inactive)
- GI50 (UACC-257): 21.2 µM (inactive)
- GI50 (UACC-62): 21.5 µM (inactive)
- GI50 (UO-31): 24.4 µM (inactive)
